Results on 1 molecule are retold here after patent US20160002299A1, “NON-IMMUNOSUPPRESSIVE CYCLOSPORIN DERIVATIVES AS ANTIVIRAL AGENTS” (UCL BUSINESS PLC, priority 2013, published 2016).

In test [1] the test system is HIV-1. The test can be described thus: Single round HIV-1 infection of monocyte derived macrophages. Format: cell-based. To be noted: MDM at MOI of 0.1-1, in the presence of Compound 1, FIG. 4. Here is the method: (§1) Primary monocyte-derived macrophages (MDM) were prepared from fresh blood from healthy volunteers. Peripheral blood mononuclear cells were isolated by Ficoll-Hypaque (Axis-Shield) density centrifugation. The isolated cells were washed with PBS and plated in RPMI (Invitrogen) supplemented with 10% heat-inactivated autologous human serum (HS) and 40 ng/ml macrophage colony stimulating factor (M-CSF) (R&D systems). The medium was then refreshed after 3 days (RPMI 1640 with 10% HS), removing any remaining non-adherent cells. After 6 days, media was replenished with
(§2) RPMI containing 5% type AB HS (Sigma-Aldrich-Aldrich). Replicate experiments were performed with cells derived from different donors.
(§3) Virus particles were produced by transient transfection of HEK293T cells. 3.5 μg of molecular clone DNA; NL4.3 Bal was transfected using Fugene 6 transfection reagent (Promega). Virus supernatants were harvested 48 hr, 72 hr and 96 hr post transfection. […] All virus preparations were quantified by reverse transcriptase (RT) enzyme linked immunosorbant assay (ELISA) (Roche). […]
(§4) Institute of Biological Standards AIDS Reagents Programme) and a secondary antibody linked to beta galactosidase. […] Cells were stained for Gag p24 at specific time points after infection and infected colonies counted. […]

The next test concerns IFN-β. The test can be described thus: IFN-β ELISA of supernatants of HIV-1 infected monocyte derived macrophages. It is filed as cell-based, human. To be noted: HIV-1 infected MDM, 10 μM Compound 1, supernatants, FIG. 3. The procedure: as §1, §2, §3, §4
In general terms: ELISA stands for enzyme-linked immunosorbent assay.

Test [2] concerns HIV-1. Briefly: HIV-1 replication in monocyte derived macrophages (Gag p24 staining, infected cells counted). It is filed as cell-based. To be noted: primary MDM, NL4.3 Bal, MOI 0.2, 10 μM Compound 1 vs DMSO control, FIG. 2. The procedure:
as §1, §2, §3, §4

In the case of `C/C=C/C[C@@H](C)[C@@H](O)[C@H]1C(=O)N[C@@H](CC)C(=O)N(C)[C@H](Cc2ccc(C(=O)O)cc2)C(=O)N(C)[C@@H](CC(C)C)C(=O)N[C@@H](C(C)C)C(=O)N(C)[C@@H](CC(C)C)C(=O)N[C@@H](C)C(=O)N[C@H](C)C(=O)N(C)[C@@H](CC(C)C)C(=O)N(C)[C@@H](CC(C)C)C(=O)N(C)[C@@H](C(C)C)C(=O)N1C` [Compound 1], the “infection lower after single round infection” value in the test with HIV-1 [1] is recorded as 5-7 fold. Moreover, the “production of IFN-β” value in the test with IFN-β is “elicited the production of IFN-β”. Moreover, the “HIV-1 replication (number of infected cells)” value with HIV-1 [2] is “completely suppressed HIV-1 replication”.
